Where a name gives a salt, the structure may show the parent alone.
tested on: ACHN cell line; assay: drug screen of the SelleckChem kinase inhibitor library with and without 5 uM SU-329, Cell-Titer Glo after 5 days; assay type: cell-based; conditions: not given

| Compound | log2fc |
| --- | --- |
| N#CC(=C(/N)Sc1ccccc1N)/C(C#N)=C(\N)Sc1ccccc1N [U0126-EtOH, U0126, reference compound] | −0.3988 |

same assay, conditions: kinase inhibitor at 200 nM with and without 5 uM SU329; ACHN cell line; 5 days; Cell-Titer Glo

| Compound | log2fc |
| --- | --- |
| CO[C@H]1C[C@@H]2CC[C@@H](C)[C@@](O)(O2)C(=O)C(=O)N2CCCC[C@H]2C(=O)O[C@H]([C@H](C)C[C@@H]2CC[C@@H](OC(=O)C(C)(CO)CO)[C@H](OC)C2)CC(=O)[C@H](C)/C=C(\C)[C@@H](O)[C@@H](OC)C(=O)[C@H](C)C[C@H](C)/C=C/C=C/C=C/1C [Temsirolimus (CCI-779, NSC 683864)] | −1.524 |
| CNC(=O)c1cc(Oc2ccc(NC(=O)Nc3ccc(Cl)c(C(F)(F)F)c3)cc2)ccn1 [Sorafenib Tosylate] | −0.2533 |
| CN(C)Cc1cccc(N/C(=C2\C(=O)Nc3cc(C(N)=O)ccc32)c2ccccc2)c1 [BIX 02188] | 0.2216 |
| CN1CCN(Cc2ccc(-c3cnc4[nH]cc(-c5ccc6[nH]ccc6c5)c4c3)cc2)CC1 [URMC-099] | 0.3515 |
| CN(c1ncccc1CNc1nc(Nc2ccc3c(c2)CC(=O)N3)ncc1C(F)(F)F)S(C)(=O)=O [PF-00562271] | 0.8274 |
| C[C@H]1[C@H](C)CC[C@]2(C(=O)O)CC[C@]3(C)C(=CC[C@@H]4[C@@]5(C)C[C@@H](O)[C@H](O)[C@@](C)(CO)[C@@H]5CC[C@]43C)[C@H]12 [Asiatic Acid] | 0.1505 |
| CN1CC[C@H](c2c(O)cc(O)c3c(=O)cc(-c4ccccc4Cl)oc23)[C@H](O)C1 [Flavopiridol HCl] | 1.693 |
| COC(=O)c1ccc2c(c1)NC(=O)/C2=C(\Nc1ccc(N(C)C(=O)CN2CCN(C)CC2)cc1)c1ccccc1 [Nintedanib (BIBF 1120)] | 0.7859 |
| O=C(Nc1c[nH]nc1-c1nc2ccc(CN3CCOCC3)cc2[nH]1)NC1CC1 [AT9283] | 2.163 |
| Cc1ncc(-c2ccnc(Nc3ccc(S(C)(=O)=O)cc3)n2)n1C(C)C [AZD5438] | 1.871 |
| Nc1nccc(Oc2ccc(NC(=O)c3c[nH]cc(-c4ccc(F)cc4)c3=O)cc2F)c1Cl [BMS-794833] | −0.04405 |
| C=CC(=O)Nc1cccc(Sc2nc(Nc3ccc(N4CCN(C)CC4)cc3)ncc2Cl)c1 [WZ8040, reference compound] | 0.02092 |
| Cn1cnc2c(F)c(Nc3ccc(Br)cc3F)c(C(=O)NOCCO)cc21 [Binimetinib (MEK162, ARRY-162, ARRY-438)] | 0.5434 |
| CCOc1cc2ncc(C#N)c(Nc3ccc(F)c(Cl)c3)c2cc1NC(=O)/C=C/CN(C)C [Pelitinib (EKB-569)] | 0.96 |
| Cc1cnc(Nc2ccc(N3CCN(C)CC3)cc2)nc1Nc1cccc(S(=O)(=O)NC(C)(C)C)c1 [TG101209] | −0.1573 |
| CNC(=O)c1cccc(-c2ccc3c(N4CCOC[C@@H]4C)nc(N4CCOC[C@@H]4C)nc3n2)c1 [Vistusertib (AZD2014)] | −0.8127 |
| O=C(c1ccc(Nc2nccc(-c3cc4ccccc4s3)n2)cc1)N1CCC(N2CCCC2)CC1 [IKK-16 (IKK Inhibitor VII)] | −0.1183 |
| KX2-391 | 0.3892 |
| Cc1cc2c(F)c(Oc3ncnn4cc(OC[C@@H](C)O)c(C)c34)ccc2[nH]1 [Brivanib (BMS-540215)] | 0.1194 |
| CN1CCN(c2ccc3nc(-c4c(N)c5c(F)cccc5[nH]c4=O)[nH]c3c2)CC1 [Dovitinib (TKI-258, CHIR-258)] | 0.4746 |
| CCS(=O)(=O)Nc1ccc2c(c1)/C(=C(/Nc1ccc(CN3CCCCC3)cc1)c1ccccc1)C(=O)N2 [Hesperadin] | 0.1006 |

| Compound | log2fc |
| --- | --- |
| COc1cc(Nc2ncc(F)c(Nc3ccc4c(n3)N(COP(=O)(O)O)C(=O)C(C)(C)O4)n2)cc(OC)c1OC [Fostamatinib (R788)] | 0.7242 |
| CC[C@H](Nc1ncnc2[nH]cnc12)c1nc2cccc(F)c2c(=O)n1-c1ccccc1 [Idelalisib (CAL-101, GS-1101)] | 0.09838 |
| Cc1c(NC(=O)c2ccc(C(C)(C)C)cc2)cccc1-c1cn(C)c(=O)c(Nc2ccc(C(=O)N3CCOCC3)cc2)n1 [CGI1746] | 0.8939 |
| CCCS(=O)(=O)Nc1ccc(F)c(C(=O)c2c[nH]c3ncc(-c4ccc(Cl)cc4)cc23)c1F [Vemurafenib (PLX4032, RG7204), vemurafenib, reference compound] | 0.009154 |
| CNC(=O)c1ccccc1Sc1ccc2c(/C=C/c3ccccn3)n[nH]c2c1 [Axitinib] | 0.00155 |
| COc1cc2nccc(Oc3ccc(NC(=O)Nc4cc(C)on4)c(Cl)c3)c2cc1OC [Tivozanib (AV-951)] | 0.798 |
| Cc1ccc(-c2nn(C(C)(C)C)c3ncnc(N)c23)cc1 [PP1] | 0.2956 |
| Cc1nc(N)sc1-c1ccnc(Nc2ccc(N3CCOCC3)cc2)n1 [CYC116] | −0.814 |
| COc1cc(Nc2ncc3c(n2)-c2ccc(Cl)cc2C(c2c(F)cccc2OC)=NC3)ccc1C(=O)O [Alisertib (MLN8237)] | 0.7052 |
| CNCc1ccc(-c2cc(-c3nc(-c4ccc(S(=O)(=O)C(C)C)cc4)cnc3N)on2)cc1 [VE-822] | 0.3083 |
| Cc1cc(NC(=O)c2cccc(NC(=O)/C=C/CN(C)C)c2)ccc1Nc1nccc(-c2cccnc2)n1 [JNK-IN-8] | 0.5696 |
| COc1ccc(-c2nc(N3CCOCC3)c3sc(CN(C)c4ncc(C(=O)NO)cn4)cc3n2)cn1 [CUDC-907] | 0.5895 |
| CO[C@H]1C[C@@H]2CC[C@@H](C)[C@@](O)(O2)C(=O)C(=O)N2CCCC[C@H]2C(=O)O[C@H]([C@H](C)C[C@@H]2CC[C@@H](OCCO)[C@H](OC)C2)CC(=O)[C@H](C)/C=C(\C)[C@@H](O)[C@@H](OC)C(=O)[C@H](C)C[C@H](C)/C=C/C=C/C=C/1C [Everolimus (RAD001)] | −1.364 |
| COc1ccc(-c2cc3c(C)nc(N)nc3n([C@H]3CC[C@H](OCCO)CC3)c2=O)cn1 [PF-04691502] | −0.5101 |
| CC(C)n1nc(-c2ccc3oc(N)nc3c2)c2c(N)ncnc21 [INK 128 (MLN0128)] | −0.2018 |
| CN1CCN(c2cccc(Nc3nc4c(-c5ccc(S(C)(=O)=O)cc5)cccn4n3)c2)CC1 [CEP-33779] | −0.6078 |
| O=C1NC(=O)/C(=C/c2ccc3c(c2)OC(F)(F)O3)S1 [AS-604850] | 0.4876 |
| O=C1Nc2ccc(I)cc2/C1=C/c1cc(Br)c(O)c(Br)c1 [GW5074] | 0.4071 |
| Nc1nc(N)c2nc(-c3cccc(O)c3)c(-c3cccc(O)c3)nc2n1 [TG100-115] | 0.2334 |
| CCc1cccc(CC)c1NC(=O)N1Cc2[nH]nc(NC(=O)c3ccc(N4CCN(C)CC4)cc3)c2C1 [PHA-680632] | −0.4048 |
| O=C1Nc2ccccc2/C1=C1/Nc2ccccc2C1=O [Indirubin] | −1.247 |

| Compound | log2fc |
| --- | --- |
| Oc1cc(O)cc(/C=C/c2ccc(O)c(O)c2)c1 [Piceatannol] | 0.5447 |
| COc1cc(F)c(F)c(Nc2ccc(I)cc2F)c1NS(=O)(=O)C1(C[C@H](O)CO)CC1 [Refametinib (RDEA119, Bay 86-9766)] | 0.4867 |
| Cc1cc(Nc2nc(N[C@@H](C)c3ncc(F)cn3)ncc2Cl)[nH]n1 [AZD1480] | 0.4813 |
| CS(=O)(=O)CCNCc1ccc(-c2ccc3ncnc(Nc4ccc(OCc5cccc(F)c5)c(Cl)c4)c3c2)o1 [Lapatinib] | 0.9499 |
| FC(F)c1nc2ccccc2n1-c1nc(N2CCOCC2)nc(N2CCOCC2)n1 [ZSTK474] | −0.8509 |
| S-Ruxolitinib (INCB018424) | −0.1855 |
| Cc1ccc(C(=O)Nc2ccc(CN3CCN(C)CC3)c(C(F)(F)F)c2)cc1C#Cc1cnc2cccnn12 [Ponatinib (AP24534)] | −0.4485 |
| COc1ccc(S(=O)(=O)N(C(C)=O)c2ccccc2/C=C/c2cc[n+]([O-])cc2)cc1 [HMN-214] | 0.2477 |
| CN1CC[C@H](c2c(O)cc(O)c3c(=O)cc(-c4ccccc4Cl)oc23)[C@H](O)C1 [Flavopiridol (Alvocidib)] | 1.05 |
| O=c1ncn2nc(Sc3ccc(F)cc3F)ccc2c1-c1c(Cl)cccc1Cl [VX-745] | −0.2953 |
| C=CCc1ccc(O)c(-c2ccc(O)c(CC=C)c2)c1 [Honokiol] | 0.09484 |
| C[C@@H](NC(=O)c1ncnc(N)c1Cl)c1ncc(C(=O)Nc2cc(C(F)(F)F)c(Cl)cn2)s1 [MLN2480] | 0.5916 |
| CCOc1cc(N2CCC(O)CC2)ccc1Nc1ncc2c(n1)N(C)c1ccccc1C(=O)N2C [XMD8-92] | −0.09901 |
| CCN(CC)CCCCNc1ncc2cc(-c3cc(OC)cc(OC)c3)c(NC(=O)NC(C)(C)C)nc2n1 [PD173074] | 0.1032 |
| Fc1cc(-c2cccc3ncc(-c4cnn(C5CCNCC5)c4)nc23)cc(F)c1CN1CCOCC1 [NVP-BSK805 2HCl] | −0.09499 |
| CC(C)(C)c1cnc(CSc2cnc(NC(=O)C3CCNCC3)s2)o1 [SNS-032 (BMS-387032)] | −1.028 |
| CS(=O)(=O)N1CCc2c(-c3cnc(N)nc3)nc(N3CCOCC3)nc21 [CH5132799] | −1.044 |
| Cc1ccc(NC(=O)c2cccc(C(C)(C)C#N)c2)cc1Nc1ccc2ncn(C)c(=O)c2c1 [AZ 628] | 0.4319 |
| Cc1csc(-c2nnc(Nc3ccc(Oc4ncccc4-c4ccnc(N)n4)cc3)c3ccccc23)c1 [AMG-900] | 0.883 |

Reference: US12195490B2, “STRAD-binding agents and uses thereof” (The Regents of the University of California, priority 2020, dated 2025)
